Patent publication US9907791B2, “Ron inhibitors for use in preventing and treating bone loss” (UNIVERSITY OF UTAH RESEARCH FOUNDATION, priority 2014, dated 2018)

Assays:
[1] = system: DU4475 breast cancer cells; assay: Intratibial DU4475 tumor-induced osteolysis; type: in vivo, mice; details: treatment began 3 days post tumor cell injection
From the text: (§1) All procedures involving mice and experimental protocols were approved by the Institutional Animal Care and Use Committee (IACUC) of the University of Utah. The RonTK−/− mice which reside on the FVB background, were crossed with NOD.SCID mice for an immune-compromised mouse model. As a control, wild-type FVB mice were also crossed with NOD.SCID mice. The STK−/− mice, which are on a C57BL/6 background, were compared to wild-type C57BL/6 mice as controls. Mice for all experiments were 6 to 8 weeks of age. For intratibial injections, 1×10^5 (PyMTor DU4475) or 3×10^5 (MDA-MB-231) tumor cells were resuspended in 10 μL matrigel and injected into the right tibia of anesthetized female FVB (PyMT) or NOD.SCID mice carrying various alleles of RON. Osteolysis was assessed by X-ray radiography. Dissected hindlimbs from mice sacrificed at the final time point in each experiment were placed in the Kodak In-vivo Multispectral Imaging System FX and exposed to X-ray radiography at 35 kV for 100 sec. Excess tumor tissue was removed from the bones prior to X-ray. Osteolytic lesions were quantified using Image J software (NCBI). All images were compared to the contralateral leg as an internal control.
For in vivo experiments, the OSI-296 inhibitor was dissolved in 40% Trappsol with 0.01 M HCl, and mice were treated at a concentration of 200 mg/kg daily by oral gavage. […]

PyMT-MSP tumor cells = assay: Intratibial PyMT-MSP tumor-induced osteolysis; type: in vivo, mice
From the text: as §1
Hindlimb bones were excised from mice at the time of sacrifice and bones were fixed in 10% neutral-buffered formalin, decalcified in Formical-2000 (Decal Corporation, Tallman, N.Y.) for 8 days and embedded in paraffin for hematoxylin and eosin (H & E) or immunohistochemical staining. Osteoclast number was assessed as TRAP^+ multinucleated cells containing 4 or more nuclei and reported as TRAP^+ cells per field. Three sections per mouse and 5 fields per section were used for quantification with fields representing the entire length of the tibia. Tumor proliferation rate was reported as the number of cells which were positive for phospho-H3 staining compared to the number of unstained cells per field expressed as a percent. Three sections per mouse and 5 fields per section were used for quantification with analysis being restricted to within the bone marrow cavity. Immunohistochemical analysis was performed with heat-induced antigen retrieval in sodium-citrate buffer (Dako, Denmark). Primary antibodies used were anti-TRAP at 1:50 (Santa Cruz, sc-30833, Dallas, Tex.), anti-Ki67 at 1:100 (Santa Cruz, sc-12202S, Dallas, Tex.), anti-phosphoH3 at 1:100 (Cell Signaling, #9701, Beverly, Mass.), anti-NFATc1 at 1:50 (Santa Cruz, sc-13033, Dallas, Tex.), and anti-RON at 1:250 (Santa Cruz, sc-322, Dallas, Tex.). Bones from mice lacking RON were used as a negative control. Biotinylated secondary antibody was used with the EnVision^+ system HRP kit (Dako, Denmark) and nuclei counterstained with hematoxylin.
For in vivo experiments, the OSI-296 inhibitor was dissolved in 40% Trappsol with 0.01 M HCl, and mice were treated at a concentration of 200 mg/kg daily by oral gavage. Treatment began either 3 days after tumor cell injection for prophylactic experiments, or 3 weeks after tumor cell injection for therapeutic experiments. ASLAN002 was dissolved in 70% PEG400 with 1×PBS and mice were treated at a concentration of 50 mg/kg daily by oral gavage. muRANK-Fc was given at a concentration of 10 mg/kg every three days by intra-peritoneal injection. For the osteoporosis study, mice were treated beginning on the day after ovary removal. The treatment regimen for OSI-296 was 200 mg/kg every other day by oral gavage. ASLAN002 was administered at 50 mg/kg every other day by oral gavage. Treatment continued until the time of sacrifice at 28 days.

ERK = assay: Western blot of osteoclast lysates, ERK; type: cell-based, mice; details: osteoclasts
Procedure: (§2) Cells were serum starved (0.5% FBS) for 3 hours prior to lysate collection. Inhibitors were added 1 hour prior to lysis and MSP was added 15 min prior to lysis when indicated. Cells were washed with 1×PBS and harvested in lysis buffer (25 mM Tris-HCl, pH 7.5, 0.42 M NaCl, 1.5 mM MgCl2, 0.5 mM EDTA, 1 mM DTT, 25% sucrose, and 0.1% Triton X-100) plus 100× protease arrest (Bioscience, Bozeman, Mont.) and 100× orthovanadate. Primary antibodies used for immunoblotting include: anti-MSP (Santa Cruz, sc-6090, Dallas, Tex.) at a 1:250 dilution, anti-pan Akt (Cell Signaling, #4691S, Beverly, Mass.) at a 1:1000 dilution, anti-pan Erk (Cell Signaling, #4695, Beverly, Mass.) at a 1:1000 dilution, anti-phospho Akt (Cell Signaling, #9271 L, Beverly, Mass.) at a 1:500 dilution, anti-phospho Erk (Cell Signaling, #4370S, Beverly, Mass.) at a 1:500 dilution, anti-Src (Cell Signaling, #2110, Beverly, Mass.) at a 1:500 dilution, and anti-phospho Src (Y416) (Cell Signaling, #2113, Beverly, Mass.) at a 1:500 dilution. The secondary antibodies used were HRP-conjugated anti-goat IgG (Santa Cruz, Dallas, Tex.) and anti-rabbit IgG (Santa Cruz, Dallas, Tex.). Chemiluminescent signals were detected using Immun-Star HRP (BioRad, Hercules, Calif.).

AKT = assay: Western blot of osteoclast lysates, phospho-AKT; type: cell-based, mice; details: osteoclasts
Procedure: as §2

SMILES: CCOc1ccn(-c2ccc(F)cc2)c(=O)c1C(=O)Nc1ccc(Oc2ccnc(N)c2Cl)c(F)c1 [ASLAN002]
- osteolysis from DU4475 cells [1]: prevented osteolysis
- inhibition of osteolysis (PyMT-MSP tumor cells; PyMT-MSP tumors, treatment beginning three days after tumor injection, average): 6-10 fold
- PyMT-MSP tumor growth in the bone (PyMT-MSP tumor cells; caliper measurements): trend in decreased growth, but did not reach statistical significance
- ERK activity (ERK): no effect
- phosphorylated AKT (AKT): decrease in phosphorylated AKT
